Patent publication US20250100993A1, “2-SUBSTITUTED THIAZOLE HSD17B13 INHIBITORS AND USES THEREOF” (Inipharm, Inc., priority 2022, published 2025)

Legend:
Type in all cases: biochemical
HSD17B2 = HSD17B2 (Homo sapiens (Human), UniProt P37059); assay: HSD17B2 activity via detection of NADH product (NAD-Glo luminescence); settings: selectivity for HSD17B13 over HSD17B2
Experimental: The fluorescence based detection assay monitors the conversion of the co-factor NAD^+ to NADH, which occurs coincident with the conversion of estradiol to estrone by HSD17B2. These assays were performed in 384 well plates (Greiner V-shape PP-microplate). The 20 μl reaction volume contained: 0.7 μM estradiol (E2); 6 mM NAD^+ (Sigma); 250 nM HSD17B2 enzyme (Origene; Cat #TP303293); 0.25 M potassium phosphate buffer pH 7.4, 0.75% vehicle (DMSO). Reactions were incubated for 2 hours at 37° C., and the reaction was stopped by freezing the reaction plates at −80° C. Zero time samples were frozen immediately.
The conversion of NAD^+ to NADH was quantitated using NAD-Glo kits (Promega; Cat #G9062) according to the manufacturers' instructions. A volume of 15 μL of enzyme reaction mixture was added to 15 μL of reconstituted Glo reagent, and the plates were incubated for 30 minutes at room temperature. Luminescence was quantitated on a Tecan Spark Reader®. A standard curve of NADH ([…]) in potassium phosphate buffer pH 7.4/1% DMSO was run on each plate.
Activity of the enzyme in the absence of E2 was used to evaluate specificity of conversion. Enzyme activity in the presence of test samples was expressed as a percentage of the uninhibited enzyme in the presence of 1% DMSO vehicle only, and was plotted versus inhibitor concentration. Non-linear regression was performed using a four-parameter logistic model and GraphPad Prism software. All assessments were undertaken in duplicate evaluations.

HSD17B13 = HSD17B13 (Homo sapiens (Human), UniProt Q7Z5P4); assay: LC/MS estrone detection assay for HSD17B13 activity (estradiol to estrone); settings: estradiol substrate, LCMS; read-out: HSD17B13 Inhibition_Estradiol Substrate_LCMS: Ki
Summary of the method: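 His-tagged E. coli-expressed enzyme (30 nM) with 4 μM estradiol and 6 mM NAD+ in potassium phosphate pH 7.4, 0.5% DMSO, 2 h at 26.5° C. Estrone formation quantified by LC-MS/MS against D4-estrone standard; activity as % of uninhibited, four-parameter fit, duplicates.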

HSD17B14 = HSD17B14 (Homo sapiens (Human), UniProt Q9BPX1); assay: LC/MS estrone detection assay for HSD17B14 activity (estradiol to estrone); settings: selectivity for HSD17B13 over HSD17B14
Experimental: The liquid chromatography/mass spectrometry (LC/MS) estrone detection assay monitors the conversion of estradiol to estrone by HSD17B14. This assay was undertaken in a 96 well plates (Eppendorf deep well), in an 80 μl reaction volume containing: 8 μM of estradiol (E2; Cayman); 4 mM NAD+(Sigma); 120 nM HSD17B14 enzyme (in-house E. coli expressed His-tagged, purified, soluble protein); 1M potassium phosphate buffer pH 7.4, and 1.2% vehicle (DMSO). Reactions were incubated for 2 hours at 37° C. Estradiol (E2) conversion to estrone (E1) was quantitated by LC-MS/MS based analyte detection for E1 using LCMS grade reagents.
Reactions were terminated by the addition of two volumes of acetonitrile (MeCN; LCMS grade) containing deuterated (D4)-E1 used as internal standard (Clear Synth; 500 ng/mL final concentration). Samples were applied to pre-prepared Bond Elut-C18 extraction cartridges (3 mL; Agilent). The cartridges were washed with 1.5 mL water followed by 1.5 mL 5% aqueous methanol, and dried for 5 minutes under vacuum. They were then eluted with 4.5 mL MeCN. The eluates were dried under nitrogen and re-suspended in 200 μL of 60% methanol (LCMS grade) before submission for analysis. Standard curves of E2 and E1 in 4% DMSO were included for quantification.
Analysis of samples was performed on a XBridge BEH C18 column (Waters) using 0.1% Diethyl Amine in MeCN (mobile phase A) and 0.1% Diethyl Amine in milli-Q water (mobile phase B) in a 3 min gradient from 0-25% B. Analytes were detected in negative mode using MRM analysis, with E2 having a RT of 1.89 min and E1 having a RT of 2.07 min. Activity of the enzyme in the absence of NAD+ was used to evaluate specificity of conversion. Enzyme activity in the presence of test samples was expressed as a percentage of the uninhibited enzyme in the presence of 1.2% DMSO vehicle only, and plotted versus inhibitor concentration. Non-linear regression was performed using a four-parameter logistic model and GraphPad Prism software. All assessments were undertaken in duplicate evaluations, which were pooled during the extraction process and subsequently injected as duplicates for LC-MS/MS analysis.

HSD17B13, sequence (Q7Z5P4 20-300): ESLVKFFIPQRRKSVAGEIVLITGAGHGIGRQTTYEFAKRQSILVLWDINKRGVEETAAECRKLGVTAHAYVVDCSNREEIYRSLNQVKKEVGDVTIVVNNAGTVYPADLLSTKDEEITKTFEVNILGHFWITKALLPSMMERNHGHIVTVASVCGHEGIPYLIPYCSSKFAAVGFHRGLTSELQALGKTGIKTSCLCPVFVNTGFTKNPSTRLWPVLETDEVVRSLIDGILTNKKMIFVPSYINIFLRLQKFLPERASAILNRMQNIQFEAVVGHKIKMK
HSD17B14, sequence (Q9BPX1 whole entry): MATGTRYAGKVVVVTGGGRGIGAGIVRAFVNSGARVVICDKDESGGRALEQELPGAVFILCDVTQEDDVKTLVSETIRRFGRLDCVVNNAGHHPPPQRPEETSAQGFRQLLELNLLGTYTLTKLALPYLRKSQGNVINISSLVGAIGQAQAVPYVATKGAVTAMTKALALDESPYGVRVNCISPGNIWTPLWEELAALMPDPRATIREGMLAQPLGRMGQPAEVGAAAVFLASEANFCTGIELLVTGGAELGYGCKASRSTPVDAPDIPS
HSD17B2, sequence (P37059 whole entry): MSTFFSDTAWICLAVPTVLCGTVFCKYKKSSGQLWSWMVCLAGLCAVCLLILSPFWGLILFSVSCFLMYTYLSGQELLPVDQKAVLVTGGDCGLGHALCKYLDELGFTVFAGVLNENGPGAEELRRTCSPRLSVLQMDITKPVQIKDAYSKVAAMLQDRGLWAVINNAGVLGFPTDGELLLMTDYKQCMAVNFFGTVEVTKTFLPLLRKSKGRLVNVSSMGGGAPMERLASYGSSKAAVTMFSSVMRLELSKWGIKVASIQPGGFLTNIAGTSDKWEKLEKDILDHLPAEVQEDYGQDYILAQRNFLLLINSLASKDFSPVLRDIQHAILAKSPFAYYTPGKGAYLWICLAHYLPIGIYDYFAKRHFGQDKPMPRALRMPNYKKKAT

HSD17B2 fold selectivity (HSD17B2) [fold] | Ki (HSD17B13) [nM] | HSD17B14 fold selectivity (HSD17B14) [fold] | SMILES
1270 | ≤ 50 | >1250 | CN(C)Cc1ccc(F)c(-c2nc(C(=O)NCc3ccccc3C(F)(F)F)c(NC(=O)c3cc(F)c(O)c(Cl)c3)s2)c1 [Example 94]
53 | ≤ 50 | – | O=C(Nc1sc(C2=CCCCC2)nc1C(=O)NCc1ccccc1C(F)(F)F)c1cc(Cl)c(O)c(Cl)n1 [Example 88]
513 | ≤ 50 | – | O=C(Nc1sc(-c2ccccc2Cl)nc1C(=O)NCc1ccccc1C(F)(F)F)c1cc(Cl)c(O)c(Cl)n1 [Example 67]
204 | ≤ 50 | – | O=C(Nc1sc(-c2ccccc2)nc1C(=O)NCc1ccccc1C(F)(F)F)c1cc(Cl)c(O)c(Cl)c1 [Example 62]
107 | ≤ 50 | >797 | O=C(Nc1sc(-c2cncc(F)c2)nc1C(=O)NCc1ccccc1C(F)(F)F)c1cc(F)c(O)c(Cl)c1 [Example 90]
115 | ≤ 50 | >855 | O=C(Nc1sc(-c2ccccc2F)nc1C(=O)NCc1ccccc1C(F)(F)F)c1cc(F)c(O)c(Cl)c1 [Example 64]
24 | 50 to 100 | 76 | CS(=O)(=O)c1ccccc1-c1nc(C(=O)NCc2ccccc2C(F)(F)F)c(NC(=O)c2cc(Cl)c(O)c(Cl)c2)s1 [Example 91]
444 | ≤ 50 | 357 | CS(=O)(=O)c1ccc(-c2nc(C(=O)NCc3ccccc3C(F)(F)F)c(NC(=O)c3cc(Cl)c(O)c(Cl)c3)s2)cc1 [Example 104]
107 | ≤ 50 | – | O=C(Nc1sc(-c2ccncc2)nc1C(=O)NCc1ccccc1C(F)(F)F)c1cc(Cl)c(O)c(Cl)n1 [Example 70]
10 | 50 to 100 | >180 | O=C(Nc1sc(N2CCS(=O)(=O)CC2)nc1C(=O)NCc1ccccc1C(F)(F)F)c1cc(Cl)c(O)c(Cl)n1 [Example 78, 5-(4,6-dichloro-5-hydroxypicolinamido)-2-(1,1-dioxidothiomorpholino)-N-(2-(trifluoromethyl)benzyl)thiazole-4-carboxamide]
2150 | ≤ 50 | >1640 | N#Cc1cccc(-c2nc(C(=O)NCc3ccccc3C(F)(F)F)c(NC(=O)c3cc(Cl)c(O)c(Cl)c3)s2)c1 [Example 95]
192 | ≤ 50 | – | O=C(Nc1sc(-c2ccccc2F)nc1C(=O)NCc1ccccc1C(F)(F)F)c1cc(Cl)c(O)c(Cl)c1 [Example 63]
175 | ≤ 50 | >646 | CS(=O)(=O)c1ccc(-c2nc(C(=O)NCc3ccccc3C(F)(F)F)c(NC(=O)c3cc(Cl)c(O)c(Cl)n3)s2)cc1 [Example 73]
64 | ≤ 50 | >397 | O=C(Nc1sc(-c2cccnc2)nc1C(=O)NCc1ccccc1C(F)(F)F)c1cc(Cl)c(O)c(Cl)c1 [Example 61]
225 | ≤ 50 | – | O=C(Nc1sc(-c2ccccc2Cl)nc1C(=O)NCc1ccccc1C(F)(F)F)c1cc(Cl)c(O)c(Cl)c1 [Example 65]
985 | ≤ 50 | >2000 | N#Cc1cccc(-c2nc(C(=O)NCc3ccccc3C(F)(F)F)c(NC(=O)c3cc(F)c(O)c(Cl)c3)s2)c1 [Example 96]
36 | 50 to 100 | – | Cn1cc(-c2nc(C(=O)NCc3ccccc3C(F)(F)F)c(NC(=O)c3cc(Cl)c(O)c(Cl)n3)s2)cn1 [Example 66]
44 | 50 to 100 | >215 | CS(=O)(=O)c1ccccc1-c1nc(C(=O)NCc2ccccc2C(F)(F)F)c(NC(=O)c2cc(Cl)c(O)c(Cl)n2)s1 [Example 92]
48 | 50 to 100 | – | O=C(Nc1sc(-c2cncnc2)nc1C(=O)NCc1ccccc1C(F)(F)F)c1cc(Cl)c(O)c(Cl)n1 [Example 68]
